IC50 data for nine compounds are collected here from ChEMBL document CHEMBL1142714, “Synthesis and pharmacological evaluation of huprine-tacrine heterodimers: subnanomolar dual binding site acetylcholinesterase inhibitors” (J Med Chem, 2005).

The target in one assay is Cholinesterase (Homo sapiens, UniProt P06276).
Assay [1] deals with Acetylcholinesterase (Homo sapiens, UniProt P22303).
Description: Inhibitory concentration against Acetylcholinesterase from human erythrocytes
The target in assay [2] is T1, Acetylcholinesterase (Bos taurus, UniProt P23795).
T1 sequence (P23795 whole entry): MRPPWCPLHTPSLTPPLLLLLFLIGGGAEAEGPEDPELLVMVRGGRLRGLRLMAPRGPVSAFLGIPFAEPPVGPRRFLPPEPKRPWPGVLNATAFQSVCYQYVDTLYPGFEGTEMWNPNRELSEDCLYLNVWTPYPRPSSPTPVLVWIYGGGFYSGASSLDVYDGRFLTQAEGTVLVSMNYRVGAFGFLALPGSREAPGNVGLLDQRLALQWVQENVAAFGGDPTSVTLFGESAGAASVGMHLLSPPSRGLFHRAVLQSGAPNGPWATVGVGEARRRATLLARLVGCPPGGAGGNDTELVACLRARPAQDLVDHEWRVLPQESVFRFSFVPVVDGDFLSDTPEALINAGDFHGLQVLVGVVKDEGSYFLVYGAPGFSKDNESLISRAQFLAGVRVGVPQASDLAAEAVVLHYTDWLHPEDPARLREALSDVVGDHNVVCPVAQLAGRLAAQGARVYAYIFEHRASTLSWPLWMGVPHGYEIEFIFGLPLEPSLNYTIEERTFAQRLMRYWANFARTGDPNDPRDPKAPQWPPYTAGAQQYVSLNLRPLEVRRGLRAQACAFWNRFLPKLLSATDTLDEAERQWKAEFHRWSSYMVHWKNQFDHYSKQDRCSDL

Assay [3] has as its target T1, Acetylcholinesterase. In words: Inhibitory concentration against Acetylcholinesterase from bovine erythrocytes after 45 min incubation.

pIC50: −log10 of the molar value.

Chain of Cholinesterase (P06276 whole entry): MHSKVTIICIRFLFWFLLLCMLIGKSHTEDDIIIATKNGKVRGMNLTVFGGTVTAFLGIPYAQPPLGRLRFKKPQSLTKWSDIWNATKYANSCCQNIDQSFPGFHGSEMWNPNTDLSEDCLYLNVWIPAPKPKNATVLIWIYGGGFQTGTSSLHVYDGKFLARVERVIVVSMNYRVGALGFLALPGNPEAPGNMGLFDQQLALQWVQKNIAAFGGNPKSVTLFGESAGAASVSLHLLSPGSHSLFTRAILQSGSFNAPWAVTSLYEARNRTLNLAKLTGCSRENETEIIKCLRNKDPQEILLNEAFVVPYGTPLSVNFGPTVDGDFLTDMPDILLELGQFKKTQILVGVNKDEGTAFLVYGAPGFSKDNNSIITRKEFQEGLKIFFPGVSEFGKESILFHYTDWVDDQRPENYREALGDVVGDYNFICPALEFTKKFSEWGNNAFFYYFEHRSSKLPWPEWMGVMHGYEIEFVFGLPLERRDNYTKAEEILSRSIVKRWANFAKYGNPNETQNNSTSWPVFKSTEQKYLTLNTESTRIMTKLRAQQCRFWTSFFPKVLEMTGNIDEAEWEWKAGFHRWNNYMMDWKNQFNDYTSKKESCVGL
Chain of Acetylcholinesterase (Homo sapiens, UniProt P22303) (P22303 whole entry): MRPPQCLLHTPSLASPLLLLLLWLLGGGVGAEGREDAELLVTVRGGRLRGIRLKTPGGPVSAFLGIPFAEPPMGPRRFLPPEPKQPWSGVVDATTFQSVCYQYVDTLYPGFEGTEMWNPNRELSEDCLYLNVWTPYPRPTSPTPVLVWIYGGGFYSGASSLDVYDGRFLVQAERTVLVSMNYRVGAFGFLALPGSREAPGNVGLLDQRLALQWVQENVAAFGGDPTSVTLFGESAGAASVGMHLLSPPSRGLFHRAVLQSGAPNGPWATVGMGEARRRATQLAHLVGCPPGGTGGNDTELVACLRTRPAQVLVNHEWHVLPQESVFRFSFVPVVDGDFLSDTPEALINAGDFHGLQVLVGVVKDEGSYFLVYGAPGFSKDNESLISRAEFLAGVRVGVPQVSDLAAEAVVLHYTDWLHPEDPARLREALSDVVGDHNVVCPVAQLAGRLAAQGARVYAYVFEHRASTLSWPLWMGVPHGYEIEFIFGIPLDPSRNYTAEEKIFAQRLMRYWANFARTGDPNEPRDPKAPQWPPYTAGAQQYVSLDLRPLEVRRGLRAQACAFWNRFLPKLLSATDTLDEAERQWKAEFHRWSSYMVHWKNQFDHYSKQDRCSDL

Turning to `CC1=C[C@@H]2Cc3nc4cc(Cl)ccc4c(NCCCN(C)CCCCNc4c5c(nc6cc(Cl)ccc46)CCCC5)c3[C@H](C1)C2`, the negative logarithm of the IC50 (pIC50) (commonly the negative decadic logarithm of the IC50, by convention in mol/L) on Cholinesterase was 7.51; at Acetylcholinesterase [1], 9.54; at Acetylcholinesterase [2], 9.27; against Acetylcholinesterase [3], 9.36.
The matching figures for `CC1=C[C@@H]2Cc3nc4cc(Cl)ccc4c(NCCCN(C)CCCCNc4c5c(nc6ccccc46)CCCC5)c3[C@H](C1)C2`: 7.79, 9.49, 9.48 and 9.59.
The corresponding values for `CC1=CC2Cc3nc4cc(Cl)ccc4c(NCCCCCCCCNc4c5c(nc6ccccc46)CCCC5)c3C(C1)C2` (stereo unspecified) are 8.32, 9.48, 8.90 and 9.19.
On to `CCC1=CC2Cc3nc4ccccc4c(NCCCCCCCCNc4c5c(nc6ccccc46)CCCC5)c3C(C1)C2` (stereo unspecified), for which the pIC50 against Cholinesterase is 8.26; against Acetylcholinesterase [1], 9.09; at Acetylcholinesterase [2], 8.66; on Acetylcholinesterase [3] it was 8.78.
Turning to `CC1=CC2Cc3nc4cc(Cl)ccc4c(NCCCCCCCNc4c5c(nc6cc(Cl)ccc46)CCCC5)c3C(C1)C2` (stereo unspecified), the pIC50 against Cholinesterase is 8.13; against Acetylcholinesterase [1], 9.48; at Acetylcholinesterase [2], 8.71; against Acetylcholinesterase [3], 8.80.
Take `CC1=CC2Cc3nc4cc(Cl)ccc4c(NCCCCCCCCNc4c5c(nc6cc(Cl)ccc46)CCCC5)c3C(C1)C2` (stereo unspecified): the pIC50 against Cholinesterase was 8.11; against Acetylcholinesterase [1], 9.40; against Acetylcholinesterase [2], 8.68; against Acetylcholinesterase [3], 8.88.
As to `CC1=CC2Cc3nc4cc(Cl)ccc4c(NCCCCCCNc4c5c(nc6cc(Cl)ccc46)CCCC5)c3C(C1)C2` (stereo unspecified), the pIC50 against Cholinesterase is 7.85; at Acetylcholinesterase [1], 9.35; at Acetylcholinesterase [2], 8.97; against Acetylcholinesterase [3] it was 9.10.
On to `CC1=CC2Cc3nc4cc(Cl)ccc4c(NCCCCCCNc4c5c(nc6ccccc46)CCCC5)c3C(C1)C2` (stereo unspecified), for which the pIC50 at Cholinesterase was 8.11; against Acetylcholinesterase [1] it was 9.30; at Acetylcholinesterase [2], 9.40; against Acetylcholinesterase [3] it was 9.57.
The matching figures for `CC1=CC2Cc3nc4cc(Cl)ccc4c(NCCCCCCCNc4c5c(nc6ccccc46)CCCC5)c3C(C1)C2` (stereo unspecified): 8.17, 9.47, 9.32 and 9.44.
